Laboratory results from patent US20150038575A1, “MELANOGENESIS-INHIBITORY CONSTITUENTS OF Ligusticum sinense” (priority 2013, published 2015).

Legend:
tyrosinase = assay: Assay of tyrosinase activity (L-tyrosine substrate, absorbance at 475 nm); format: biochemical; settings: mushroom tyrosinase, pH 6.8, 37° C.
Method: The source of the tested tyrosinase was from mushroom, and the substrate of the tyrosinase was L-tyrosine. The experiment was performed by the method below. First, 40 μL of pH 6.8 phosphate buffer solution, 40 μL of various sample solution (samples in 0.07M pH6.8 phosphate buffer solution containing 0.1 vol % of DMSO), and 40 μL of tyrosinase (250 unit/mL, dissolved in pH 6.8 phosphate buffer solution at a concentration of 0.07 M) were sequentially and respectively added into 96-wells plate. The sample solutions above respectively contain the compounds II, III, and kojic acid. The group added with the sample solution containing kojic acid was used as positive control (PC). A group without adding the sample solution was used as control (C). The mixtures described above were thermostat at 37° C. for 10 minutes. Then, 80 μL of tyrosine solutions (0.4 mg/mL, dissolved in 0.07M pH6.8 phosphate buffer solution) were respectively added into each mixture and thermostat for another 20 minutes to perform reaction. The amount of the obtained product L-DOPA of each mixture was measured at 475 nm to get absorbance of each sample. Therefore, the tyrosinase activity was calculated by the formula below. Tyrosinase activity(%)=[(A−B)/(C−D)]×100 The symbol A above is the absorbance of groups containing a sample and tyrosinase. The symbol B above is the absorbance of groups containing a sample but not tyrosinase. The symbol C above is the absorbance of groups containing tyrosinase but not a sample.

[1] = system: B16-F10 murine melanoma cells; assay: Analysis of melanin content in B16-F10 murine melanoma cells (α-MSH stimulated); format: cell-based; settings: for melanin content in the melanoma cells: B16-F10 cells, 25, 50 and 100 μM, FIG. 8B; for melanin content in the melanoma cells / IC50: 100 nM α-MSH, 72 hours; for IC50: Mus musculus, B16-F10 cells, read-out: IC50 for inhibiting the melanogenesis; for inhibitory activity of melanogenesis: summary statement on the isolated compounds
Method: The melanin content in B16-F10 murine melanoma cells was analyzed by a modified Hosoi method disclosed in 1985 (Hosoi J, Abe E, Suda T, Kuroki T, Regulation of melanin synthesis of B16 mouse melanoma cells by 1 alpha, 25-dihydroxyvitamin D3 and retinoic acid. Cancer Res. 1985; 45(4):1474-8).
First, in a 12-wells cell plate, 1×10^3 cells were implanted into each well and stayed for 24 hours to let the cells attach to the wall of the well. Various concentrations (25, 50, and 100 μM) of the compounds I, II, III, and arbutin (positive control; PC) were respectively added into each wells, and 100 nM of α-melanocyte stimulating hormone (α-MSH) was subsequently adaded. The cells were cultured for 72 hours. After the treatment above, cells were washed by PBS, and then treated by trypsin to desorb the cells. 150 μL of 1N NaOH solution containing 10% DMSO was then added and heated in a 80° C. water bath for 1 hour. After cooling to room temperature, the samples were centrifuge at 5000 rpm for 10 minutes. The upper solution was transferred into a 96-wells plate and analyzed by a microplate reader at 405 nm. The absorbance at 405 nm for each sample was read to calculate the melanin content of each sample.

[2] = system: B16-F10 murine melanoma cells; assay: Viability test of B16-F10 murine melanoma cells (MTT assay); format: cell-based; settings: 72 hours; for cell viability: FIG. 8A
Method: In this test, B16-F10 murine melanoma cells (BCRC No. 60031) were used.
First, the B16-F10 murine melanoma cells were cultured in Dulbecco's Modified Eagle's Medium (abbreviated as DMEM, which contains 90% (v/v) DMEM, 10% (v/v) fetal bovine serum), and additionally added 1% (v/v) Penicillin-Streptomycin Solution. Then, the cells in the mediums were incubated under 5% CO2/air at 37° C. in 70% of humidity. The medium was exchanged every two days. When the cells grew to a density of 80-90%, the cells were treated by trypsin to desorb the cells from the walls of containers Next, haemocytometer (Neubauer Improved., Marienfeld, Germany) was used to count the number of the cells. Proper amount of cells were then transplanted into cell culture plates to prepare for cell viability tests.
Cell viability rate was determined by MTT assay. MTT assay was performed by using […] in the mitochondria of living cells to reduce yellow 3-(4,5-dimethylthiazol-2-yl)-2,5-diphenyl tetrazolium bromide (MTT) to purple formazan product. Therefore, the amount of the purple formazan product is proportional to the number of the living cells and thus can be determined by spectrophotomter.
In a 12-wells cell plate, 1×10^3 cells were implanted into each well and stayed for 24 hours to let the cells attach to the wail of the well. Then, the compounds I, II, Ill and arbutin (positive control; PC) were respectively added into each wells and cultured for 72 hours. Next, MTT dye (Applichem Co., Denmark) dissolved in 0.5 mg/ml PBS solution was added to each well to react for 2 hours. The obtained purple formazan product was dissolved in 400 μL of DMSO, and then the absorbance of the purple DMSO solution was analyzed by microplate reader to get the absorbance at 570 nm. The cell viability rate was determined by the formula below.
Cell viability rate (%)=(Absorbance of test group/absorbance of blank group)×100%

[3] = system: NHEKs in Leiden epidermal models (LEMs); assay: Viability test of human epidermal skin equivalents (Leiden epidermal models, MTT); format: cell-based; settings: 24 hours exposure
Method: In this test, fresh mamma reduction surplus skin of a single individual (D002, Fitzpatrick skin type I/II) was used for isolation of normal human epidermal keratinocytes (NHEKs).
Leiden epidermal models (LEMs) were generated by seeding NHEKs on an inert filter insert. The NHEKs in LEMS were incubated overnight under submerged conditions in keratinocyte medium. Within four days, fetal bovine serum was gradually omitted and the NHEKs in LEMs were cultured serum-free at the air-liquid interface for 7 days, while culture medium was refreshed twice a week.
Viability assays were performed by adding 0,5 mL of 1 mg/mL MTT to each of the NHEKs in LEMs for 3h, after 24 hours exposure to the test articles (compounds II, III, and DMSO (negative control)). The precipitated blue formazan product was extracted from the cells within 2 hours with 0.5 mL isopropanol per well. The concentration of formazan was measured by determining the OD at 570 nm using a Tecan Infinite F50 microplate reader.

[4] = concentration of 10-100 μM, FIG. 8C

Row | SMILES | inhibitory effect to the tyrosinase activity (tyrosinase) | melanin content in the melanoma cells [1] | IC50 [1] [µM] | inhibitory activity of melanogenesis [1] | cytotoxicity to the B16-F10 murine melanoma cells [2] | cell viability [2] | cytotoxicity to the NHEKs in the Leiden epidermal models [3] | cell viability ([3]; 10 μM) [%] | cell viability ([3]; 100 μM) [%] | cell viability [3, 4] | cell growth ([2]; at a concentration of 100 μM) | cell viability ([3]; 50 μM) [%]
1 | CCCC[C@@H]1OC(=O)C2=CCCC[C@H]21 [compound II, Neocnidilide] | do not show obvious inhibitory effect | can decrease the melanin content | 31.1 ± 6.8 | have inhibitory activity of melanogenesis | did not have cytotoxicity | did not affect the cell viability | did not have cytotoxicity | 97 | 92 | did not affect the cell viability | – | –
2 | C=CC(c1ccc(O)c(OC)c1)c1cc(/C=C/C(=O)O)cc(OC)c1O (stereo not drawn) [compound III] | do not show obvious inhibitory effect | can decrease the melanin content | 78.9 ± 8.1 | have inhibitory activity of melanogenesis | did not have cytotoxicity | – | did not have cytotoxicity | 98 | 106 | did not affect the cell viability | slight tendency to inhibit cell growth | 104
3 | CCCC[C@@H]1OC(=O)[C@H]2CCCC[C@@H]12 [compound I, 3-Butylhexahydrophthalide] | do not show obvious inhibitory effect | can decrease the melanin content | 100 ± 12.9 | have inhibitory activity of melanogenesis | did not have cytotoxicity | did not affect the cell viability | – | – | – | – | – | –
